Assay results: article PMC7162861, “Synthesis, cytotoxicity, pharmacokinetic profile, binding with DNA and BSA of new imidazo[1,2-a]pyrazine-benzo[d]imidazol-5-yl hybrids” (Scientific Reports, 2020)

Experiments:
SR = experiment: NCI cytotoxicity screen, Leukemia panel; type: cell-based; conditions: Homo sapiens, single dose 10 µM, negative = lethal, read-out: Percent growth inhibition
Experimental: (§1) Cytotoxicity was performed at National Cancer Institute (NCI), Bethesda, USA as per their protocols.

RPMI-8226 = experiment: NCI cytotoxicity screen, Leukemia panel; type: cell-based; conditions: Homo sapiens; RPMI-8226; single dose 10 µM; negative = lethal; read-out: Percent growth inhibition
Experimental: as §1

MOLT-4 = experiment: NCI cytotoxicity screen, Leukemia panel; type: cell-based; conditions: Homo sapiens, MOLT-4, MOLT-4; single dose 10 µM; negative = lethal; read-out: Percent growth inhibition
Experimental: as §1

HL-60(TB) = experiment: NCI cytotoxicity screen, Leukemia panel; type: cell-based; conditions: Homo sapiens, HL-60, HL-60(TB); single dose 10 µM; negative = lethal; read-out: Percent growth inhibition
Experimental: as §1

K-562 = experiment: NCI cytotoxicity screen, Leukemia panel; type: cell-based; conditions: Homo sapiens, K562; K-562; single dose 10 µM; negative = lethal; read-out: Percent growth inhibition
Experimental: as §1

CCRF-CEM = experiment: NCI cytotoxicity screen, Leukemia panel; type: cell-based; conditions: Homo sapiens, single dose 10 µM, negative = lethal, read-out: Percent growth inhibition
Experimental: as §1

[1] = Experimental log P, shake-flask method; type: physicochemical; conditions: n-octanol/phosphate buffer pH 7.4, read-out: Exp. Log P
Summary of the method: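 Shake-flask partitioning between n-octanol and phosphate buffer pH 7.4, shaken 50 min, then centrifuged 35 min at 2500 rpm. Buffer-phase absorbance at each compound's λmax measured before and after partitioning. P calculated from absorbance drop and phase volume ratio.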

HCT-15 = experiment: NCI cytotoxicity screen, Colon Cancer panel; type: cell-based; conditions: Homo sapiens, single dose 10 µM, negative = lethal, read-out: Percent growth inhibition
Experimental: as §1

HCT-116 = experiment: NCI cytotoxicity screen, Colon Cancer panel; type: cell-based; conditions: Homo sapiens, single dose 10 µM, negative = lethal, read-out: Percent growth inhibition
Experimental: as §1

COLO 205 = experiment: NCI cytotoxicity screen, Colon Cancer panel; type: cell-based; conditions: Homo sapiens, single dose 10 µM, negative = lethal, read-out: Percent growth inhibition
Experimental: as §1

HT29 = experiment: NCI cytotoxicity screen, Colon Cancer panel; type: cell-based; conditions: Homo sapiens, HT-29; HT29; single dose 10 µM; negative = lethal; read-out: Percent growth inhibition
Experimental: as §1

LOX IMVI = experiment: NCI cytotoxicity screen, Melanoma panel; type: cell-based, human; conditions: Homo sapiens, single dose 10 µM, negative = lethal, read-out: Percent growth inhibition
Experimental: as §1

UACC-62 = experiment: NCI cytotoxicity screen, Melanoma panel; type: cell-based, human; conditions: Homo sapiens, single dose 10 µM, negative = lethal, read-out: Percent growth inhibition
Experimental: as §1

M14 = experiment: NCI cytotoxicity screen, Melanoma panel; type: cell-based, human; conditions: Homo sapiens, single dose 10 µM, negative = lethal, read-out: Percent growth inhibition
Experimental: as §1

TK-10 = experiment: NCI cytotoxicity screen, Renal Cancer panel; type: cell-based, human; conditions: Homo sapiens, single dose 10 µM, negative = lethal, read-out: Percent growth inhibition
Experimental: as §1

786-0 = experiment: NCI cytotoxicity screen, Renal Cancer panel; type: cell-based, human; conditions: Homo sapiens, single dose 10 µM, negative = lethal, read-out: Percent growth inhibition
Experimental: as §1

SK-MEL-28 = experiment: NCI cytotoxicity screen, Melanoma panel; type: cell-based; conditions: Homo sapiens, single dose 10 µM, negative = lethal, read-out: Percent growth inhibition
Experimental: as §1

SK-MEL-5 = experiment: NCI cytotoxicity screen, Melanoma panel; type: cell-based; conditions: Homo sapiens, single dose 10 µM, negative = lethal, read-out: Percent growth inhibition
Experimental: as §1

MDA-MB-435 = experiment: NCI cytotoxicity screen, Melanoma panel; type: cell-based; conditions: Homo sapiens, MDA-MB-435, read-out: Percent growth inhibition
Experimental: as §1

UACC-257 = experiment: NCI cytotoxicity screen, Melanoma panel; type: cell-based; conditions: Homo sapiens, single dose 10 µM, negative = lethal, read-out: Percent growth inhibition
Experimental: as §1

SK-MEL-2 = experiment: NCI cytotoxicity screen, Melanoma panel; type: cell-based; conditions: Homo sapiens, single dose 10 µM, negative = lethal, read-out: Percent growth inhibition
Experimental: as §1

MALME-3M = experiment: NCI cytotoxicity screen, Melanoma panel; type: cell-based; conditions: Homo sapiens; MALME-3M; single dose 10 µM; negative = lethal; read-out: Percent growth inhibition
Experimental: as §1

OVCAR-3 = experiment: NCI cytotoxicity screen, Ovarian Cancer panel; type: cell-based, human; conditions: Homo sapiens; OVCAR-3; single dose 10 µM; negative = lethal; read-out: Percent growth inhibition
Experimental: as §1

OVCAR-5 = experiment: NCI cytotoxicity screen, Ovarian Cancer panel; type: cell-based; conditions: Homo sapiens, single dose 10 µM, negative = lethal, read-out: Percent growth inhibition
Experimental: as §1

SK-OV-3 = experiment: NCI cytotoxicity screen, Ovarian Cancer panel; type: cell-based; conditions: Homo sapiens, single dose 10 µM, negative = lethal, read-out: Percent growth inhibition
Experimental: as §1

NCI/ADR-RES = experiment: NCI cytotoxicity screen, Ovarian Cancer panel; type: cell-based; conditions: Homo sapiens, single dose 10 µM, negative = lethal, read-out: Percent growth inhibition
Experimental: as §1

OVCAR-4 = experiment: NCI cytotoxicity screen, Ovarian Cancer panel; type: cell-based; conditions: Homo sapiens; OVCAR-4; single dose 10 µM; negative = lethal; read-out: Percent growth inhibition
Experimental: as §1

OVCAR-8 = experiment: NCI cytotoxicity screen, Ovarian Cancer panel; type: cell-based; conditions: Homo sapiens, single dose 10 µM, negative = lethal, read-out: Percent growth inhibition
Experimental: as §1

IGROV1 = experiment: NCI cytotoxicity screen, Ovarian Cancer panel; type: cell-based; conditions: Homo sapiens, IGROV-1, single dose 10 µM, negative = lethal, read-out: Percent growth inhibition
Experimental: as §1

PC-3 = experiment: NCI cytotoxicity screen, Prostate Cancer panel; type: cell-based, human; conditions: Homo sapiens, single dose 10 µM, negative = lethal, read-out: Percent growth inhibition
Experimental: as §1

DU-145 = experiment: NCI cytotoxicity screen, Prostate Cancer panel; type: cell-based, human; conditions: Homo sapiens, single dose 10 µM, negative = lethal, read-out: Percent growth inhibition
Experimental: as §1

SF-295 = experiment: NCI cytotoxicity screen, CNS Cancer panel; type: cell-based; conditions: Homo sapiens, single dose 10 µM, negative = lethal, read-out: Percent growth inhibition
Experimental: as §1

SF-268 = experiment: NCI cytotoxicity screen, CNS Cancer panel; type: cell-based; conditions: Homo sapiens, single dose 10 µM, negative = lethal, read-out: Percent growth inhibition
Experimental: as §1

U251 = experiment: NCI cytotoxicity screen, CNS Cancer panel; type: cell-based; conditions: Homo sapiens, U-251; U251; single dose 10 µM; negative = lethal; read-out: Percent growth inhibition
Experimental: as §1

SNB-19 = experiment: NCI cytotoxicity screen, CNS Cancer panel; type: cell-based; conditions: Homo sapiens; SNB-19; single dose 10 µM; negative = lethal; read-out: Percent growth inhibition
Experimental: as §1

SF-539 = experiment: NCI cytotoxicity screen, CNS Cancer panel; type: cell-based; conditions: Homo sapiens, single dose 10 µM, negative = lethal, read-out: Percent growth inhibition
Experimental: as §1

SNB-75 = experiment: NCI cytotoxicity screen, CNS Cancer panel; type: cell-based; conditions: Homo sapiens, single dose 10 µM, negative = lethal, read-out: Percent growth inhibition
Experimental: as §1

KM12 = experiment: NCI cytotoxicity screen, Colon Cancer panel; type: cell-based, human; conditions: Homo sapiens, single dose 10 µM, negative = lethal, read-out: Percent growth inhibition
Experimental: as §1

SW-620 = experiment: NCI cytotoxicity screen, Colon Cancer panel; type: cell-based, human; conditions: Homo sapiens, single dose 10 µM, negative = lethal, read-out: Percent growth inhibition
Experimental: as §1

HCC-2998 = experiment: NCI cytotoxicity screen, Colon Cancer panel; type: cell-based, human; conditions: Homo sapiens; HCC-2998; single dose 10 µM; negative = lethal; read-out: Percent growth inhibition
Experimental: as §1

SN12C = experiment: NCI cytotoxicity screen, Renal Cancer panel; type: cell-based; conditions: Homo sapiens, single dose 10 µM, negative = lethal, read-out: Percent growth inhibition
Experimental: as §1

A498 = experiment: NCI cytotoxicity screen, Renal Cancer panel; type: cell-based; conditions: Homo sapiens, single dose 10 µM, negative = lethal, read-out: Percent growth inhibition
Experimental: as §1

CAKI-1 = experiment: NCI cytotoxicity screen, Renal Cancer panel; type: cell-based; conditions: Homo sapiens; CAKI-1; single dose 10 µM; negative = lethal; read-out: Percent growth inhibition
Experimental: as §1

`c1ccc2c(-c3cn4ccnc4c(-c4ccc5c(c4)ncn5C4CCCCC4)n3)cccc2c1` [Compound 12, 8-(1-cyclohexyl-1H-benzo[d]imidazol-5-yl)-6-(naphthalen-1-yl)imidazo[1,2-a]pyrazine] gave an inhibition at 10 µM (SR) of 10.9%, an inhibition at 10 µM (RPMI-8226) of 38.2% and an inhibition at 10 µM (MOLT-4) of roughly 50%. It also gave an inhibition at 10 µM (HL-60(TB)) of roughly 50%, an inhibition at 10 µM (K-562) of 38% and an inhibition at 10 µM (CCRF-CEM) of 27.2%. The logP [1] was 1.48, the inhibition at 10 µM (HCT-15) was 15.3% and the inhibition at 10 µM (HCT-116) was 23.7%. For the same compound, the inhibition at 10 µM (COLO 205) was less than 1%, the inhibition at 10 µM (HT29) was 16.5% and the inhibition at 10 µM (LOX IMVI) was 11.4%. It also gave an inhibition at 10 µM (UACC-62) of 21%, an inhibition at 10 µM (M14) of 0.39% and an inhibition at 10 µM (TK-10) of 5.82%. For the same compound, the inhibition at 10 µM (786-0) was 13.3%, the inhibition at 10 µM (SK-MEL-28) was less than 1% and the inhibition at 10 µM (SK-MEL-5) was 2.13%. The inhibition at 10 µM (MDA-MB-435) was 4.07%, the inhibition at 10 µM (UACC-257) was 35.5% and the inhibition at 10 µM (SK-MEL-2) was 20.6%. It also gave an inhibition at 10 µM (MALME-3M) of less than 1%, an inhibition at 10 µM (OVCAR-3) of 4.29% and an inhibition at 10 µM (OVCAR-5) of less than 1%. The inhibition at 10 µM (SK-OV-3) was less than 1%, the inhibition at 10 µM (NCI/ADR-RES) was 11.8% and the inhibition at 10 µM (OVCAR-4) was 15%. The inhibition at 10 µM (OVCAR-8) was 24%, the inhibition at 10 µM (IGROV1) was 3.68% and the inhibition at 10 µM (PC-3) was 13.3%. For the same compound, the inhibition at 10 µM (DU-145) was 6.09%, the inhibition at 10 µM (SF-295) was 7.88% and the inhibition at 10 µM (SF-268) was 11.8%. The inhibition at 10 µM (U251) was 27.9%, the inhibition at 10 µM (SNB-19) was 16.7% and the inhibition at 10 µM (SF-539) was 7.72%. It also gave an inhibition at 10 µM (SNB-75) of 9.15%, an inhibition at 10 µM (KM12) of 8.69% and an inhibition at 10 µM (SW-620) of 1.43%. The inhibition at 10 µM (HCC-2998) was less than 1%, the inhibition at 10 µM (SN12C) was 13.6% and the inhibition at 10 µM (A498) was less than 1%. It also gave an inhibition at 10 µM (CAKI-1) of 20.7%.
With `c1cn2cc(-c3ccsc3)nc(-c3ccc4c(c3)ncn4C3CCCCC3)c2n1` [Compound 14, 8-(1-cyclohexyl-1H-benzo[d]imidazol-5-yl)-6-(thiophen-3-yl)imidazo[1,2-a]pyrazine] the inhibition at 10 µM (SR) was 23.6%, the inhibition at 10 µM (RPMI-8226) was 20.8% and the inhibition at 10 µM (MOLT-4) was 14.3%. It also gave an inhibition at 10 µM (HL-60(TB)) of 2.65%, an inhibition at 10 µM (K-562) of 9.6% and an inhibition at 10 µM (CCRF-CEM) of 1.1%. For the same compound, the logP [1] was 1.63, the inhibition at 10 µM (HCT-15) was 18.8% and the inhibition at 10 µM (HCT-116) was 15.8%. For the same compound, the inhibition at 10 µM (COLO 205) was less than 1%, the inhibition at 10 µM (HT29) was 9.2% and the inhibition at 10 µM (LOX IMVI) was 14.5%. The inhibition at 10 µM (UACC-62) was 18.5%, the inhibition at 10 µM (M14) was 3.43% and the inhibition at 10 µM (TK-10) was less than 1%. The inhibition at 10 µM (786-0) was less than 1%, the inhibition at 10 µM (SK-MEL-28) was less than 1% and the inhibition at 10 µM (SK-MEL-5) was 24.8%. It also gave an inhibition at 10 µM (MDA-MB-435) of 6%, an inhibition at 10 µM (UACC-257) of less than 1% and an inhibition at 10 µM (SK-MEL-2) of 0.58%. For the same compound, the inhibition at 10 µM (MALME-3M) was 3.01%, the inhibition at 10 µM (OVCAR-3) was less than 1% and the inhibition at 10 µM (OVCAR-5) was less than 1%. For the same compound, the inhibition at 10 µM (SK-OV-3) was less than 1%, the inhibition at 10 µM (NCI/ADR-RES) was 4.17% and the inhibition at 10 µM (OVCAR-4) was less than 1%. For the same compound, the inhibition at 10 µM (OVCAR-8) was 6.38%, the inhibition at 10 µM (IGROV1) was 19.1% and the inhibition at 10 µM (PC-3) was 17.9%. The inhibition at 10 µM (DU-145) was less than 1%, the inhibition at 10 µM (SF-295) was less than 1% and the inhibition at 10 µM (SF-268) was 5.01%. For the same compound, the inhibition at 10 µM (U251) was 30.2%, the inhibition at 10 µM (SNB-19) was 3.96% and the inhibition at 10 µM (SF-539) was 2.82%. For the same compound, the inhibition at 10 µM (SNB-75) was less than 1%, the inhibition at 10 µM (KM12) was 11.7% and the inhibition at 10 µM (SW-620) was less than 1%. For the same compound, the inhibition at 10 µM (HCC-2998) was less than 1%, the inhibition at 10 µM (SN12C) was 6.33% and the inhibition at 10 µM (A498) was less than 1%. The inhibition at 10 µM (CAKI-1) was less than 1%.
